# Laboratory results as given in patent publication US20250051316A1, “2-(ARYL-2-YL) […] […], PREPARATION METHOD THEREFOR AND APPLICATION THEREOF” (SHANGHAI HANSOH BIOMEDICAL CO., LTD., priority 2021, published 2025).
# Target: T1, TAAR1 receptor (Homo sapiens, UniProt Q96RJ0)
# T1 construct: expressed in transfected cells
# T1 sequence (Q96RJ0 1-339): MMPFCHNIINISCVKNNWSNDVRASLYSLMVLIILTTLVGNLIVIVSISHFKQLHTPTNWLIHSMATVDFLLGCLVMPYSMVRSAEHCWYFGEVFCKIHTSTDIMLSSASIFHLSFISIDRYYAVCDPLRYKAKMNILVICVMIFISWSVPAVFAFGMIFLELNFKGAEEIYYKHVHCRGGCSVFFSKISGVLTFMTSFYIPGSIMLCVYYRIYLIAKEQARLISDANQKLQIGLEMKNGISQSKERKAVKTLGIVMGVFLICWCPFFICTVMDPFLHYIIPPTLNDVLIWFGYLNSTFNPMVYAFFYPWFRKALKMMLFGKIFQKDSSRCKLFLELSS
# Test: Effect on cAMP content in cells which stably express TAAR1 receptor
# Assay type: cell-based
# Description: Test Example1. Determination of the effect of the present compound on cAMP content in cells which stably express TAAR1 receptor
# Determination of the activation effect of compounds on TAAR1 receptors.
# • 1) Preparation of experimental buffer: 1*HBSS+20 mM HEPES+0.1% BSA+500 μM IBMX. • 2) Complete medium: • Ham's F12K+10% Fetal Bovine Serum+1*Penicillin-Streptomycin+200 μg/mL Hygromycin B for CHO • DMEM+10% Fetal Bovine Serum+1*Penicillin-Streptomycin+200 μg/mL Hygromycin B for HEK293 • 3) TAAR1 cell line was cultured in complete medium at 37° C. and 5% CO2; After TrypLE digestion, the cells were resuspended in the experimental buffer and seeded into a 384 cell culture plate with a density of 8000 cells/15 ul/well. • 4) The compound was diluted with experimental buffer and added 5 μL to each well to culture at 37° C. for 30 minutes. • 5) cAMP-d2 and Anti cAMP Eu3+ were freeze thaw, and diluted 20 times with lysis buffer; 10 μL cAMP-d2 was added to the experimental well, and then 10 μL Anti cAMP Eu3+ was added into the experimental well; the reaction plate was centrifuged at 200 g for 30 seconds at room temperature, and stand at 25° C. for 1 hour; data was collected by Envision.
# [formula] • 5) EC50 of compounds was calculated using GraphPad nonlinear fitting formula:
# [formula] • X: Log value of the compound concentration; Y: Activation %
row,Compound,EC50 [nM]
1,"[2H]C1([2H])COC(c2cccc(C)n2)CN1 (single isomer, unassigned) [Example 10-2, 2-(6-Methylpyridin-2-yl)morpholin-5,5-d2]",5.4
2,"[2H]C1([2H])CO[C@@H](c2ccc(F)cn2)CN1 (single isomer, unassigned) [Example 17-2, 2-(5-fluoropyridin-2-yl)morpholin-5,5-d2]",8.3
3,"[2H]C1([2H])CO[C@H](c2ccc(F)cc2)CN1 (single isomer, unassigned) [Example 33-1, 2-(4-Fluorophenyl)morpholin-5,5-d2]",7.9
